Data taken from ChEMBL document CHEMBL1201862, “PubChem BioAssay data set” (2004).
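Interpolation was linear, between the two tested concentrations surrounding the appropriate level; five concentrations were tested over 48 hours in 96-well plates. GI50: concentration for 50% inhibition of growth.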 Active and inactive are the calls of the source. No stated cut-off is given here; in the data, active = GI50 up to about 1.1 µM and inactive = higher.

Assays:
Assay in all cases: NCI tumour cell line growth inhibition, 48 h
786-0 = system: 786-0
A498 = system: A498
A549 = system: A549
ACHN = system: ACHN
CAKI-1 = system: CAKI-1
CCRF-CEM = system: CCRF-CEM
COLO 205 = system: COLO 205
DLD-1 = system: DLD-1
DMS-114 = system: DMS-114
DMS-273 = system: DMS-273
HCC 2998 = system: HCC 2998
HCT-116 = system: HCT-116
HCT-15 = system: HCT-15
HOP-18 = system: HOP-18
HOP-62 = system: HOP-62
HOP-92 = system: HOP-92
HT-29 = system: HT-29
IGROV-1 = system: IGROV-1
K562 = system: K562
KM-20L2 = system: KM-20L2
KM12 = system: KM12
LOX IMVI = system: LOX IMVI
LXFL 529 = system: LXFL 529
M14 = system: M14
M19-MEL = system: M19-MEL
MOLT-4 = system: MOLT-4
Malme-3M = system: Malme-3M
NCI-H23 = system: NCI-H23
NCI-H460 = system: NCI-H460
NCI-H522 = system: NCI-H522
OVCAR-3 = system: OVCAR-3
OVCAR-4 = system: OVCAR-4
OVCAR-5 = system: OVCAR-5
OVCAR-8 = system: OVCAR-8
RPMI-8226 = system: RPMI-8226
RXF 393 = system: RXF 393
SF-268 = system: SF-268
SF-295 = system: SF-295
SF-539 = system: SF-539
SK-MEL-28 = system: SK-MEL-28
SK-MEL-2 = system: SK-MEL-2
SK-MEL-5 = system: SK-MEL-5
SK-OV-3 = system: SK-OV-3
SN12C = system: SN12C
SNB-19 = system: SNB-19
SNB-75 = system: SNB-75
SNB-78 = system: SNB-78
SR = system: SR
SW-620 = system: SW-620
TK-10 = system: TK-10
U-251 = system: U-251
UACC-257 = system: UACC-257
UACC-62 = system: UACC-62
UO-31 = system: UO-31

CCCCCCCC/C=C/CCCCCCCC(=O)N(O)C1CC(n2cc(C)c(=O)[nH]c2=O)OC1CO (centres undefined)
GI50 (786-0): 4.46 µM (inactive) | GI50 (A498): 18.3 µM (inactive) | GI50 (A549): 19 µM (inactive) | GI50 (ACHN): 6.03 µM (inactive) | GI50 (CAKI-1): 8.99 µM (inactive) | GI50 (CCRF-CEM): 4.22 µM (inactive) | GI50 (COLO 205): 4.8 µM (inactive) | GI50 (DLD-1): 6.4 µM (inactive) | GI50 (DMS-114): 4.41 µM (inactive) | GI50 (DMS-273): 5.07 µM (inactive) | GI50 (HCC 2998): 10.6 µM (inactive) | GI50 (HCT-116): 8.53 µM (inactive) | GI50 (HCT-15): 4.67 µM | GI50 (HOP-18): 3.65 µM (inactive) | GI50 (HOP-62): 6.25 µM (inactive) | GI50 (HOP-92): 13.8 µM (inactive) | GI50 (HT-29): 10.2 µM (inactive) | GI50 (IGROV-1): 5.38 µM (inactive) | GI50 (K562): 0.488 µM (active) | GI50 (KM-20L2): 3.56 µM (inactive) | GI50 (KM12): 11.3 µM (inactive) | GI50 (LOX IMVI): 4.9 µM (inactive) | GI50 (LXFL 529): 10.6 µM (inactive) | GI50 (M14): 3.55 µM (inactive) | GI50 (M19-MEL): 5.3 µM (inactive) | GI50 (MOLT-4): 4.41 µM (inactive) | GI50 (Malme-3M): 9.71 µM (inactive) | GI50 (NCI-H23): 10.6 µM (inactive) | GI50 (NCI-H460): 3.85 µM (inactive) | GI50 (NCI-H522): 7.76 µM (inactive) | GI50 (OVCAR-3): 7.33 µM (inactive) | GI50 (OVCAR-4): 11.2 µM (inactive) | GI50 (OVCAR-5): 10.4 µM (inactive) | GI50 (OVCAR-8): 11.4 µM (inactive) | GI50 (RPMI-8226): 9.68 µM (inactive) | GI50 (RXF 393): 3.77 µM (inactive) | GI50 (SF-268): 11 µM (inactive) | GI50 (SF-295): 8.28 µM (inactive) | GI50 (SF-539): 11.6 µM (inactive) | GI50 (SK-MEL-28): 4.51 µM (inactive) | GI50 (SK-MEL-2): 13.7 µM (inactive) | GI50 (SK-MEL-5): 7.18 µM (inactive) | GI50 (SK-OV-3): 10.3 µM (inactive) | GI50 (SN12C): 10.6 µM (inactive) | GI50 (SNB-19): 12.9 µM (inactive) | GI50 (SNB-75): 12.1 µM (inactive) | GI50 (SNB-78): 18 µM (inactive) | GI50 (SR): 3.27 µM (inactive) | GI50 (SW-620): 11 µM (inactive) | GI50 (TK-10): 10.8 µM (inactive) | GI50 (U-251): 4.89 µM (inactive) | GI50 (UACC-257): 13.2 µM (inactive) | GI50 (UACC-62): 2.64 µM (inactive) | GI50 (UO-31): 3.96 µM (inactive)
